Data taken from US7067290B2, “Method for production of polyketides” (Kosan Biosciences Incorporated, priority 2002, dated 2006).

Assay: pH stability of triketide lactones in fermentation supernatant
Assay type: physicochemical
Conditions: pH values above 6–8 (FIG. 1)
Description: Samples were centrifuged to remove cells and insoluble media components. If necessary, supernatants were diluted in 1:1 acetonitrile-water with 0.1% acetic acid. Samples were analyzed by HPLC-MS/MS, quantitating by comparison with an internal analytical standard of 2,4-dimethyl-3-hydroxyoctanoic acid δ-lactone (“P-TKL”). In cases where the purity of the analytic standard was doubtful, titers were renorted as arbitrary units. Samples were injected onto a C18 reversed-phase HPLC column and eluted with a gradient of acetonitrile in water containing 0.1% formic acid. Triketide lactones were detected using multiple reaction monitoring of the following MS/MS transitions: TKL: m/z 173 to 109; CM-TKL: m/z 193 to 119; V-TKL: m/z 171 to 107; and P-TKL: m/z 181 to 123.
To test the stability of CM-TKL and V-TKL in fermentation supernatant, the following experiment was undertaken. Supernatant from flask cultures was collected at the end of an experiment by centrifugation at 2700×g for 20 minutes. The supernatant was divided into four portions. The pH of the control portion was adjusted to 3.5, and that sample was frozen at −20° C. […] The samples were incubated for 18 hours at 30° C. then analyzed for product as described previously with the data reported as percent of the control.

**Q.** For `C=C[C@H]1OC(=O)[C@H](C)[C@@H](O)[C@H]1C` [V-TKL], which “stability in fermentation broth” value is on record?
**A.** Its value is “unstable”.

**Q.** Which “stability in fermentation broth” value does the source give for `C[C@@H]1[C@H](O)[C@@H](C)C(=O)O[C@@H]1CCl` [CM-TKL] here?
**A.** The value was “unstable”.
